Assay results published in patent publication US8518989B2, “Prodrugs of short-chain fatty acids and treatment methods” (Georgia Health Sciences University Research Institute, Inc., priority 2005, dated 2013).

Experiments:
human SLC5A8 [1] = target: T1, human SLC5A8 (Homo sapiens, UniProt Q8N695, F251V/V193I); experiment: Two-microelectrode voltage clamp of substrate-induced currents in SLC5A8-expressing oocytes; assay type: cell-based
T1 construct: We amplified the coding region of SLC5A8 mRNA by RT-PCR using human intestinal mRNA as the template; expressed in transfected cells; host or cells: Xenopus laevis oocytes, 50 ng capped cRNA from the pGH19 construct
T1 sequence (Q8N695 1-610 V193I/F251V): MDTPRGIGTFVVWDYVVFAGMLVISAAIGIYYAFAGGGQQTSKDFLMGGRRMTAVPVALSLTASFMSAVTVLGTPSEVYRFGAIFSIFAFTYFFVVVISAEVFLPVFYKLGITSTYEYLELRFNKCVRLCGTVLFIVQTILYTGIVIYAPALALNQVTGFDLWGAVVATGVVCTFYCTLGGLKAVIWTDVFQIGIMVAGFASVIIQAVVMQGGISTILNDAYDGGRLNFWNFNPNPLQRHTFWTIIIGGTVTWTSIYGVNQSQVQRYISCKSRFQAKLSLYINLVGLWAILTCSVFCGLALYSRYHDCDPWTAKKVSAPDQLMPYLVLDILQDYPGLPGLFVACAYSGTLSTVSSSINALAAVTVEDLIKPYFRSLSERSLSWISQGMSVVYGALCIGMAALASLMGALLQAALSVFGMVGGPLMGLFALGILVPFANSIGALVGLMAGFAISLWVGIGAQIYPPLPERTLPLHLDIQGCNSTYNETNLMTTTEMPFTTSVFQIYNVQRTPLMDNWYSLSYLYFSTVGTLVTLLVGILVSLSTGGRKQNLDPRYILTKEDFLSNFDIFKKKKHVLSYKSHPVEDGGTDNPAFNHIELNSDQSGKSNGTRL
Method: (§1) The amplified human SLC5A8 cDNA was expressed heterologously in Xenopus oocytes by cRNA injection. Capped cRNA from SLC5A8 cDNA was synthesized using the mMESSAGE mMACHINE kit (Ambion Inc., Austin, Tex.). Mature oocytes (stage 1V or V) from Xenopus laevis were injected with 50 ng cRNA. Uninjected oocytes served as controls. The oocytes were used for uptake and electrophysiological studies 3-6 days after cRNA injection. Uptake of radiolabeled substrates in uninjected and cRNA-injected oocytes was determined as described previously (Fei, Y. J., et al., (1995) Biochemistry 34, 8744-8751).
(§2) Eight oocytes were used for each uptake measurement. Electrophysiological studies were performed by the two-microelectrode voltage clamp method (11. Wang, H., Fei, et al., (2000) Am. J. Physiol. 278:C1019-C1030; Inoue, K, et al. (2004) Biochem. J. 378:949-957).
Oocytes were perfused with a NaCl-containing buffer (100 mM NaCl, 2 mM KCl, 1 mM MgCl2, 1 mM CaCl2, 3 mM Hepes, 3 mM Mes, and 3 mM Tris, pH 7.5), followed by the same buffer containing different fatty acids. The membrane potential was clamped at −50 mV. The differences between the steady-state currents measured in the presence and absence of substrates were considered as the substrate-induced currents. To investigate the current-membrane potential (I—V) relationship, step changes in membrane potential were applied, each for a duration of 100 ms in 20-mV increments. The kinetic parameter K0.5 (i.e. the substrate concentration necessary for the induction of half-maxima) current) was calculated by fitting the values of the substrate-induced currents to Michaelis-Menten equation. The Na^+-activation kinetics was analyzed by measuring the substrate-specific currents in the presence of increasing concentrations of Na^+. The data were analyzed by the Hill equation to determine the Hill coefficient (h; the number of Na^+ ions involved in the activation process). The kinetic parameters were determined using the computer program Sigma Plot, version 6.0 (SPSS, Inc., Chicago, Ill.). Electrophysiological measurements of substrate-induced currents were repeated at least four times with separate oocytes. The data are presented as means±S.E. of these replicates.
The charge-to substrate transfer ratio was determined for propionate in four different oocytes as described previously (Wang, H., et al. (2000) Am. J. Physiol. 278:C1019-C1030 12. Inoue, K., Fei, Y. J., Zhuang, L., Gopal, E., Miyauchi, S., and Ganapathy, V. (2004) Biochem. J. 378:949-957). The oocytes were perfused with 25 μM propionate (unlabeled plus radiolabeled propionate), and inward currents were monitored over a period of 8-10 min. At the end of the experiment, the amount of propionate transported into the oocytes was calculated by measuring the radioactivity associated with the oocytes. The area within the curve describing the relationship between the time and inward current was integrated to calculate the charge transferred into the oocyte during incubation with propionate. The values for substrate transfer and charge transfer were used to determine the charge to substrate transfer ratio.

HDAC = HDAC activity in a cell-free system with MCF7 cell lysate; assay type: biochemical, human
Method: Measurement of HDAC activity in a cell-free system: This was done using a commercially available assay kit (BioVision). MCF7 cell lysate was used as a source of HDAC activity. 50 μg of lysate protein was incubated with various monocarboxylates (1 mM), or trichostatin A (20 μM), and the reaction was initiated by the addition of HDAC substrate. The reaction was then terminated and the deacetylated product was measured according to the manufacturer's instructions. The activity is expressed in nmoles of deacetylated product formed per μg of MCF7 cell lysate protein per 30 min.

human SLC5A8 [2] = target: T1, human SLC5A8; experiment: Uptake of radiolabeled short-chain fatty acids in Xenopus oocytes injected with SLC5A8 cRNA; assay type: cell-based; settings: 1 h incubation
Method: as §1, §2
Uptake of short-chain fatty acids in uninjected oocytes and in oocytes injected with SLC5A8 cRNA was measured with 1 h incubation. Concentration of substrates (labeled plus unlabeled) varied in the range of 50-500 μM depending on the specific radioactivity of the substrates. Eight oocytes were used for each uptake measurement. Data represent means±SE.

[3] = test system: MCF7 cells transfected with SMCT1 cDNA; experiment: Colony formation assay in MCF7 cells transfected with SMCT1 cDNA; assay type: cell-based, human; settings: SMCT1-expressing MCF7 cells

CC(=O)O [acetate]
Relative magnitude of substrate-induced currents (human SLC5A8 [1]; 5 mM, -50 mV): intermediate
K0.5 for SLC5A8 (human SLC5A8 [1]; four oocytes): 2.46 ± 0.89 mM
HDAC inhibition (in words) (HDAC): least potent
Fold increase of uptake (cRNA-injected over uninjected) (human SLC5A8 [2]): 1.8 fold
Uptake, cRNA-injected oocytes (human SLC5A8 [2]; SLC5A8 cRNA-injected oocytes): 0.059 ± 0.003
Uptake, uninjected oocytes (human SLC5A8 [2]; uninjected control oocytes): 0.032 ± 0.001
Effect on cell growth / apoptosis [3]: no effect on cell growth
